Data on 3 compounds can be found in PMC9656436, “Synthesis and Biological Evaluation of New Isoxazolyl Steroids as Anti-Prostate Cancer Agents” (International Journal of Molecular Sciences, 2022).

Assay [1] addresses T1, CYP17A1 (Homo sapiens, UniProt P05093).
T1 construct: recombinant human CYP17A1, reconstituted system; with NADPH-cytochrome P450 reductase (rat)
T1 sequence (P05093 1-508): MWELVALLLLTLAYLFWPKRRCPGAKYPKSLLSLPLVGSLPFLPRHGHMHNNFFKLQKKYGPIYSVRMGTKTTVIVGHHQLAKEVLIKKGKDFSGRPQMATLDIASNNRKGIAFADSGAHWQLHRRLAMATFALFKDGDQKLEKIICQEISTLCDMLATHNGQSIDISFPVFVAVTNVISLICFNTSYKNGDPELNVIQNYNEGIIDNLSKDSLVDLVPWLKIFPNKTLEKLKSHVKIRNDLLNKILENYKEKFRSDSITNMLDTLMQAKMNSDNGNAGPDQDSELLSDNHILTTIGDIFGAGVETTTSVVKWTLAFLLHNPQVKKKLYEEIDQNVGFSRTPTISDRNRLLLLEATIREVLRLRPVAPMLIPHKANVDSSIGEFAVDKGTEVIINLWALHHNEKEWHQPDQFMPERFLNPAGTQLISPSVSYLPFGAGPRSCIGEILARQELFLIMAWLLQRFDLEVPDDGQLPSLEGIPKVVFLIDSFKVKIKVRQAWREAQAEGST
T1 sequence (P00388 2-678 partner): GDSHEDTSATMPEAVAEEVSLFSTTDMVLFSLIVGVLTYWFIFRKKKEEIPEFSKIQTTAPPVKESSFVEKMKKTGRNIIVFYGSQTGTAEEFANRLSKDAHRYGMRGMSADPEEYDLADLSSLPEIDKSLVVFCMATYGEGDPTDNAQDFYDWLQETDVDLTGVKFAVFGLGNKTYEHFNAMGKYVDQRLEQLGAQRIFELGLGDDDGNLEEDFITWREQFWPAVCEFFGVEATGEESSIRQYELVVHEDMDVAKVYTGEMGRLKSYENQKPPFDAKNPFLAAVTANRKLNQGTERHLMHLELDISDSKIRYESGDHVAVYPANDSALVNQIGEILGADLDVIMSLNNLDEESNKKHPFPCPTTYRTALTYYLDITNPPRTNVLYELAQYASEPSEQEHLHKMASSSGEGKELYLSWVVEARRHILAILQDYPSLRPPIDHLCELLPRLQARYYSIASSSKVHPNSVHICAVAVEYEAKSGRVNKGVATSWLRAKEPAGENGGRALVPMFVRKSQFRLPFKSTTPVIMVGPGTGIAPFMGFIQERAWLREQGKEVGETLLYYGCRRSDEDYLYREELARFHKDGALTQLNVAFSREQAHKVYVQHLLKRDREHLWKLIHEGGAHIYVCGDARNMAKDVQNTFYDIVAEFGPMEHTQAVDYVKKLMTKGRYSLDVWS
As to the kind of experiment: reconstituted […]α-hydroxylase assay, HPLC, […] compound. The class given is biochemical. The note with it: read-out: 17α-Hydroxylase Activity / Inhibition, %.

Assay [2] addresses T2, CYP17A1 (Homo sapiens, UniProt P05093).
T2 construct: recombinant human CYP17A1, purified
T2 sequence (P05093 1-508): T1 sequence (P05093 1-508)
Put plainly: UV-Vis spectrophotometric titration (type II spectral response). The assay is classed as binding.

For the compound `CC(C)c1cc(C[C@H]2CC[C@H]3[C@@H]4CC=C5C[C@@H](O)CC[C@]5(C)[C@H]4CC[C@]23C)on1` [24b, (17R)-17-((3-isopropylisoxazol-5-yl)methyl)-androst-5-en-3β-ol], in assay [1], the inhibition at 50 µM was 45%.
Turning to `C[C@]12CC[C@H]3[C@@H](CC=C4C[C@@H](O)CC[C@@]43C)[C@@H]1CC[C@@H]2Cc1cc(C2CC2)no1` [24c, (17R)-17-((3-Cyclopropylisoxazol-5-yl)methyl)-androst-5-en-3β-ol], in assay [1], the inhibition at 50 µM is 45.7%.
Regarding `C[C@]12CC[C@H](O)CC1=CC[C@@H]1[C@@H]2CC[C@]2(C)C(c3cccnc3)=CC[C@@H]12` [abiraterone], the Kd in assay [2] is under 1000 nM.
